These results are taken from BindingDB's records for doi:10.1111/cbdd.12840 (Miranda House, 2017).

The target in this experiment is T1, Putative FAD-containing monooxygenase MymA (Mycobacterium tuberculosis (strain ATCC 25618 / H37Rv), UniProt P9WNF7).
T1 sequence (P9WNF7 whole entry): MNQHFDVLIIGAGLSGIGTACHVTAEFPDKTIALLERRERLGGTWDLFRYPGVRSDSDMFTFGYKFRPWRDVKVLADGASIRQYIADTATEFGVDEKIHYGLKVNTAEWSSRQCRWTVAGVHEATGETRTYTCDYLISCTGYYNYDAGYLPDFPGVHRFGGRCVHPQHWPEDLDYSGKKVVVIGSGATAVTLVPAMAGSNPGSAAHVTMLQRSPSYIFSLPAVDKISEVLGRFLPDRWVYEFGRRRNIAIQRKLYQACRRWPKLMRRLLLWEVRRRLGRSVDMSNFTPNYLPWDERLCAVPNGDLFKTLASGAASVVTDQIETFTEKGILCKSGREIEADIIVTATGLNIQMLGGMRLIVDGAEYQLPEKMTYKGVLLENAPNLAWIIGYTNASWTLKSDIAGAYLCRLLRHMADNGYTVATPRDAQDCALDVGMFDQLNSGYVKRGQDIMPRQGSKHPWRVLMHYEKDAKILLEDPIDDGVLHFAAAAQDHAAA
As to the kind of experiment: MymA Inhibition Assay. Here is the method:
Inhibition of MymA activity by INH was checked using different concentrations (0-12 um) of INH, 100 um of trimeth-ylamine and 5 mg of MymA along with the other components in the enzyme assay as described above.

Each structure is given as a SMILES string.

Take `NNC(=O)c1ccncc1` [4-pyridinecarbohydrazide(Isoniazid)]: it took 4.9 µM to reach half-maximal inhibition (IC50).
